Experimental data published in BindingDB's records for doi:10.1021/jm301755q (University Health Network, 2013).

Legend:
[1] = biological target: Protein-arginine deiminase type-4 (Homo sapiens) (UniProt Q9UM07); experiment: Inhibition of PAD4 (unknown origin) at 52 degC
[2] = biological target: Protein-arginine deiminase type-4 (Homo sapiens) (UniProt Q9UM07); experiment: Inhibition of PAD4 (unknown origin) at 37 degC

Sequence of Protein-arginine deiminase type-4 (Homo sapiens) (Q9UM07 whole entry, looked up): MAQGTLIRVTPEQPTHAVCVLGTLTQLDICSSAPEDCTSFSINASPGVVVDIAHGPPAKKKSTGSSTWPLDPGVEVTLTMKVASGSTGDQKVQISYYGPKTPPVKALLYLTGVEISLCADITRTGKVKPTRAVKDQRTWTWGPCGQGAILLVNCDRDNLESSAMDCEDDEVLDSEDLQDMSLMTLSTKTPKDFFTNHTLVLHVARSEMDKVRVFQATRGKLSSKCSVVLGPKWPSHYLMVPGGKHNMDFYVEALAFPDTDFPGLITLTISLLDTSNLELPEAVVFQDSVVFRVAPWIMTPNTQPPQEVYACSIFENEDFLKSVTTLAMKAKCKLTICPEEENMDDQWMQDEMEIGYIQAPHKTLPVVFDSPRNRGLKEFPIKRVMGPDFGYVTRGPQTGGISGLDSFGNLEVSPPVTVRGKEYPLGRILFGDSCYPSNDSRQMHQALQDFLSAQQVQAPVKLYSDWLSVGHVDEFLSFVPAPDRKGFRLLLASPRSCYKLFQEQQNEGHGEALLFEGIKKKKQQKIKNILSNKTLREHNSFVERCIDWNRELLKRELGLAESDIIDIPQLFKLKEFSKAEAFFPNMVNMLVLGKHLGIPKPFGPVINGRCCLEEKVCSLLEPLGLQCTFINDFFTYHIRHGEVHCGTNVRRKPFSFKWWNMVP

| IC50 [1] [µM] | Ki [1] [µM] | IC50 [2] [µM] | Ki [2] [µM] | SMILES |
| --- | --- | --- | --- | --- |
| 2650 | 231 | 1320 | 115 | C[C@H]1C(=O)Nc2ccc(-c3csc(N=C(N)N)n3)cc21 |
| 4270 | 371 | 1380 | 131 | CC1(C)NC(=O)N(CN2CCNCC2)C1=O |
| 790 | 69 | 1460 | 127 | CC(=NN=C(N)N)C1=CC(C)(C)CCC1 |
| 757 | 66 | 1760 | 153 | CC1CCc2c(sc3ncn(N)c(=N)c23)C1 (stereo unspecified) |
